Converted amounts (≈) assume the structure as drawn.

Series [1] deals with glucosyltransferase. Nature of the series: Glucosyltransferase inhibition activity (insoluble glucan, absorbance at 550 nm). The format is biochemical, S. mutans MT8148. To be noted: 0.15 ml of 2,000 ppm sample solution in 3 ml total volume; pH 6.0, 37° C., 3 hours; control water. The protocol:
As an enzyme solution, was used an extract which was obtained by culturing S. mutans MT8148 strain on Todd-Hewitt medium and then extracting hyphae with 8M urea in accordance with the method proposed by Hamada et al. [S. Hamada et al., J. Gen. Microbiol., 35, 335- 344 (1999 )].
A reaction system was prepared by adding 0.15 ml of an aqueous solution of a sample, said solution having been prepared to contain the sample at the concentration of 2,000 ppm, the enzyme solution prepared from the S. mutans strain and water to 0.6 ml of 500 mM sodium phosphate buffer which had pH 6.0 and contained 5% of sucrose, 0.5% of dextran T10 and 0.5% of sodium azide. The water was added in an amount to give a total volume of 3 ml. They were reacted in a glass test tube. In the above measurement, the amount of the enzyme was set such that the absorbance at 550 nm became about 1.0 when reacted at 37° C. for 3 hours.
Resultant insoluble glucan was subjected to ultrasonic disintegration and the; absorbance (A) at 550 nm was measured. Using as control (B) the absorbance obtained from the use of water in place of the sample solution, the inhibition rate (%) was determined in accordance with the following calculation formula: [formula] (Measurement results )
The glucosyltransferase inhibition activities of the extracts of the various fermented tea leaves, said extracts having been obtained in Examples 1, 2 and 3, and of caffeine and catechins, which are representative components of tea leaves, were measured using the above reaction system.

A further series concerns S. mutans MT8148 strain. Nature of the series: Anti-plaque test (in vitro plaque formation). To be noted: sample 5% in Dulbecco's modified Eagle's medium, 37° C., 1 day, anaerobic; Average ± S.D.; anticarious sugar of Example 10. The format is cell-based. The protocol:
The test was carried out in the following manner. Culture media were prepared by adding the test samples at the concentration of 5% to Dulbecco's modified Eagle's medium, respectively. 6-ml Portions of the media were added to glass test tubes, respectively, to which S. mutans MT8148 strain was planted. After the cells were cultured at 37° C. for 1 day under anaerobic conditions, the amounts of plaque adhered on the walls of the respective test tubes were weighed.

Series [2] relates to glucosyltransferase. Nature of the series: Anti-glucan formation test. The format is biochemical, S. mutans MT8148. To be noted: 0.3 ml of 10% sample solution in 3 ml; pH 6.0, 37° C., 3 hours; relative to sugar. As to the method:
To a mixture consisting of 0.3 ml of a 10% sample solution, 0.3 ml of 1M sodium phosphate buffer-which had pH 6.0 and contained 1.0% of dextran T10 and 1.0% of sodium azide--and a glucosyltransferase enzyme solution, water was added in an amount to give a total volume of 3 ml so that a reaction system was prepared. They were reacted in a glass test tube.
Insoluble glucan thus formed was subjected to ultrasonic disintegration, and the absorbance (A) at 550 nm was measured.
As the glucosyltransferase enzyme solution, was used an extract which was obtained by culturing S. mutans MT8148 strain on Todd-Hewitt medium and then extracting hyphae with 8M urea in accordance with the method proposed by Hamada et al. [S. Hamada et al., J. Gen. Microbiol., 135, 335-344 (1989)].

Series [3] is described as follows: Solubility in distilled water. It is filed as physicochemical. To be noted: for solubility: distilled water, water. The text has this: Sugar: Refined sugar (prime grade)
Palatinose: Crystalline palatinose

Consider `Oc1cc(O)c2c(c1)OC(c1ccc(O)c(O)c1)C(O)C2` (stereo not shown) [Catechin], for which, in the series with glucosyltransferase [1], the “Inhibition rate, %” value amounted to 13%.

In the case of `O=C(O[C@@H]1Cc2c(O)cc(O)cc2O[C@@H]1c1ccc(O)c(O)c1)c1cc(O)c(O)c(O)c1` [Epicatechin gallate], the “Inhibition rate, %” value in the series on glucosyltransferase [1] was determined as 19%.

For `Oc1cc(O)c2c(c1)O[C@H](c1ccc(O)c(O)c1)[C@H](O)C2` [Epicatechin], the “Inhibition rate, %” value with glucosyltransferase [1] came to 14%.

With `Oc1cc(O)c2c(c1)O[C@H](c1cc(O)c(O)c(O)c1)[C@H](O)C2` [Epigallocatechin], in the series with glucosyltransferase [1], the “Inhibition rate, %” value came to 11%.

Turning to `Oc1cc(O)c2c(c1)O[C@H](c1cc(O)c(O)c(O)c1)[C@@H](O)C2` [Gallocatechin], the “Inhibition rate, %” value in the series on glucosyltransferase [1] worked out at 15%.

By solubility is commonly meant how much of the substance goes into solution per volume. As for `OC[C@H]1O[C@H](OC[C@H]2OC(O)(CO)[C@@H](O)[C@@H]2O)[C@H](O)[C@@H](O)[C@@H]1O` (stereo partly shown) [Palatinose, palatinose], in the series with S. mutans MT8148 strain, the “Amount of plaque formed” value was 2.01 ± 0.22 mg. Further, in the series with glucosyltransferase [2], the “Relative amount of formed glucan, %” value was determined as 2%. Moreover, in series [3], the “Solubility (in words)” value is recorded as “low solubility especially at low temperatures”. For the same compound, the solubility in series [3] (10° C.) stood at 210 mg/mL (≈ 614 mM); in series [3] (30° C.), 320 mg/mL (≈ 935 mM); in series [3] (50° C.) it was 440 mg/mL (≈ 1290 mM); in series [3] (70° C.) it was 580 mg/mL (≈ 1690 mM).

Take `OC[C@H]1O[C@@](CO)(O[C@H]2O[C@H](CO)[C@@H](O)[C@H](O)[C@H]2O)[C@@H](O)[C@@H]1O` [Sugar]: the solubility in series [3] (10° C.) turned out to be 630 mg/mL (≈ 1840 mM); in series [3] (30° C.), 680 mg/mL (≈ 1990 mM); in series [3] (50° C.) it was 720 mg/mL (≈ 2100 mM); in series [3] (70° C.), 740 mg/mL (≈ 2160 mM).

Source of the values: patent US5409692A, “Glucosyltransferase inhibitors, as well as dental caries prevention methods and anticarious foods using the same” (priority 1990, dated 1995).
